Source: patent publication US11957766B2, “HNQO1-activatable fluorescent probe for imaging cancer cells in-vitro and in-vivo” (Texas Tech University System, priority 2019, dated 2024)
“Also recorded” adds a separate entry of the source.

Key:
[1] = system: NQO1 in A549 and H460 cells; test: ES936 pretreatment of cells before NIR-ASM (microscopy and flow cytometry); type: cell-based, human
Procedure: Chemical and genetic approaches confirm the specificity of NIR-ASM for NQO1 in live tumor cells. A fluorescence probe with high sensitivity, simple operation, and excellent specificity will be an asset for the detection of NQO1 in situ. To assess the substrate selectivity of NIR-ASM for NQO1, both A549 and H460 cells were pretreated with 100 nM of NQO1 inhibitor ES936 for 6 h, before incubating with 10 μM NIR-ASM. […] The effect of ES936 on endogenous NQO1 activity and subsequent reactivity with NIR-ASM was also determined by flow cytometry. […] The presence of NQO1 protein in the transfected MDA-MB-231 cells and its absence in the untransfected control was confirmed by immunoblotting (FIG. 13E). Subsequently, the NQO1-negative and positive MDA-MB-231 cell lines were incubated with NIR-ASM and analyzed by fluorescence microscopy and flow cytometry for activation of the probe.
Fluorescence imaging. Both cancer and normal cells were seeded into 6-well plates and cultured overnight in respective media at 37° C. […] Finally, the medium was replaced with PBS and the live cells were imaged using a multiphoton confocal fluorescence microscope (λex/em=488/644 nm). […]
Flow cytometry analysis. The endogenous NQO1 activity of cancer cells and normal cells was determined by flow cytometry after NIR-ASM exposure. […] About 1×10^4 cells were analyzed by flow cytometry (λex=488 nm).

NQO1 [2] = biological target: T1, NQO1 (Homo sapiens, UniProt P15559); test: Inhibitory effect of ES936 on hNQO1 activation of NQ-DCP; type: biochemical; conditions: ES936 0-100 nM, enzyme pre-treated, 30 min
T1 sequence (P15559 whole entry): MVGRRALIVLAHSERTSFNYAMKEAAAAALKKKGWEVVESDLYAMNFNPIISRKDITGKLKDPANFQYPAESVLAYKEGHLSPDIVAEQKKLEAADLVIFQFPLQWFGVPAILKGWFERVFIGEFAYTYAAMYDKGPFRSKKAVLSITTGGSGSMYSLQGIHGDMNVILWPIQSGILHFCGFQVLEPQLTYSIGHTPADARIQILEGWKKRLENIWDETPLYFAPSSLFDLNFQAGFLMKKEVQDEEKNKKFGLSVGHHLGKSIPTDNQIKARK
Procedure: Selectivity of NQ-DCP Towards hNQO1. The specificity of NQ-DCP probe towards hNQO1 was studied by determining its reactivity towards various biomolecules such as the glutathione (GSH, 1 mM), aldehyde dehydrogenase 1 (ALDH1A1, 2.5 μg/mL), gamma-glutamyl transferase (GGT, 10 U), glutathione Peroxidase (GPx, 10 U), apurinic/apyrimidinic endonuclease (APE1, 10 U), cystathionine-β-synthase (CBS, 2 μg/mL), cathepsin L (CTSL, 2 μg/mL), glutathione S-transferase (GST-pi, 2 μg/mL), nitroreductase (NTR, 2 μg/mL) and NADH (100 μM) alone or the combination of and NQO1 (2.5 μg/mL). […] To gain more insight into the specificity of the probe towards hNQO1, the enzyme was pre-treated with ES936 (0-100 nM), a well-known hNQO1 inhibitor [39] and then incubated with NQ-DCP.
Evaluation of Inhibitor Efficiency. To evaluate the inhibitory efficiency of ES936 towards hNQO1 under in vitro conditions, different concentrations of ES936 (0-100 nM) incubated with 2.0 μg/mL of NQO1, 100 μM NADPH in PBS with 0.1% BSA (pH 7.4) at 37° C. Fluorescence emission was recorded after 30 min of incubation (λex=420 nm).

NQO1 [3] = biological target: T1, NQO1; test: Effect of NQO1 inhibitor ES936 on NQO1 activation of NIR-ASM; type: biochemical; set-up: purchased Sigma-Aldrich D1515; conditions: ES936 0-100 nM, NQO1 pretreated
Procedure: Selectivity of NIR-ASM. The selectivity of NIR-ASM probe was studied by examining its reactivity towards various biomolecules and antioxidant enzymes such as the glutathione, aldehyde dehydrogenase 1, gamma-glutamyl transferase, glutathione peroxidase, apurinic/apyrimidinic endonuclease, cystathionine-β-synthase, cathepsin L, glutathione S-transferase, NADH alone and the combination of nitroreductase and NQO1.
NQO1 inhibitor efficiency evaluation. NQO1 inhibitor efficiency was evaluated using specific NQO1 inhibitor ES936 under in vitro conditions. 2.5 μg/mL of NQO1 was incubated with different concentrations of ES936 (0-100 nM) in the presence of 100 μM NADH at 37° C. Fluorescence emission was recorded after 30 min of incubation (λex. 460 nm).

hNQO1 in T98G cells = test: ES936 pretreatment of cells before NQ-DCP, fluorescence microscopy; type: cell-based, human; conditions: 100 nM ES936 for 6 h, then 10 μM NQ-DCP
Procedure: Evaluation of Specificity in Cancer Cells. To show the substrate selectivity of NQ-DCP for hNQO1, T98G cells were pretreated with 100 nM of NQO1 inhibitor ES936 for 6 h and incubated 10 μM of NQ-DCP.
Cell Culture, Fluorescence Imaging, and Flow Cytometry Analysis. Brain tumor cells and astrocytes were grown in Dulbecco's modified Eagle's (DMEM) medium containing 10% Fetal Bovine Serum and 1% penicillin/streptomycin in a humidified atmosphere of 5% CO2 at 37° C. For fluorescence imaging, initially, cells were seeded into 6-well plate and cultured overnight in respective media at 37° C. Media was replaced with fresh medium containing 10 μM NQ-DCP and incubated at 37° C. for 60 min and then the medium was replaced with PBS and live cells were imaged using a fluorescence microscope. For inhibitor study, cells were pretreated with NQO1 inhibitor ES936 (100 nM) for 6 h before adding the NQ-DCP. For determining endogenous hNQO1 activity in cancer cells using flow cytometry, about 10×10^4 cells were incubated with 10 μM of NQ-DCP for 60 min and were analyzed using flow cytometry.

[4] = Photophysical property of the fluorophore ASM; type: physicochemical
From the text: Design, preparation, and characterization of the NIR-ASM fluorescent probe. Imaging agents emitting near-infrared fluorescence enable deeper penetration with low phototoxicity and high signal-to-background ratios due to minimal tissue auto-fluorescence, which is a prime requirement for in vivo imaging studies.^40,41 Accordingly, the inventors designed an NQO1 activatable near-infrared fluorescent probe (NIR-ASM) by attaching a trimethyl-lock QPA with (E)-2-(3-(4-aminostyryl)-5,5-dimethylcyclohex-2-en-1-ylidene)malononitrile (ASM) for molecular imaging of cancer cells in vivo (FIG. 9A). The fluorophore ASM was used in this study because of its strong NIR fluorescence signal with substantial Stokes shift (˜190 nm), to eliminate background interferences by avoiding reabsorption of emitted photons. […] NQO1 is a ubiquitous cytosolic two-electron reductase that catalyzes the reduction of quinone substrates in the presence of NADH. Upon interaction with NQO1 in the presence of NADH, QPA present in non-fluorescent NIR-ASM undergoes two-electron reduction to form an o-hydroxydihydrocinnamic acid derivative that undergoes rapid lactonization under physiological conditions to yield dihydrocoumarin, 6-hydroxy-4,4,5,7,8-pentamethylchroman-2-one (HPC) along with highly fluorescent ASM. […]

SMILES | effect on NIR-ASM fluorescence in cells (microscopy) ([1]; 100 nM ES936 for 6 h, then 10 μM NIR-ASM) | effect on NIR-ASM induced fluorescence intensity (flow cytometry) ([1]; 100 nM ES936 pretreated tumor cells) | effect on the fluorescence response of NQ-DCP to hNQO1 (NQO1 [2]) | effect on the fluorescence response of NIR-ASM to NQO1 (NQO1 [3]) | effect on NQ-DCP fluorescence in cells (hNQO1 in T98G cells) | Stokes shift [4] [nm]
COC1=CC(=O)c2c(c(COc3ccc([N+](=O)[O-])cc3)c(C)n2C)C1=O [ES936] | completely blocked the NIR-ASM fluorescence | significantly decreased | effectively suppressed the fluorescence response in a concentration-dependent manner; also recorded: completely blocked the NQ-DCP fluorescence | effectively suppressed the fluorescence response in a concentration-dependent fashion | completely blocked the NQ-DCP fluorescence | 
CC1(C)CC(/C=C/c2ccc(N)cc2)=CC(=C(C#N)C#N)C1 [ASM, (E)-2-(3-(4-aminostyryl)-5,5-dimethylcyclohex-2-en-1-ylidene) malononitrile] |  |  |  |  |  | ~190
